This is an account of results in patent publication US20210038607A1, “OXADIAZOLYLTHIOPHENE DERIVATIVES USEFUL AS HISTONE DEACETYLASE INHIBITORS” (Karus Therapeutics Limited, priority 2018, published 2021).

The structures appear in SMILES notation.

The target of assay [1] is T1, Human HDAC1 (Homo sapiens, UniProt Q13547).
T1 construct: full length with C-terminal His-tag and C-terminal FLAG-tag; His (C); FLAG (C); host or cells: baculovirus expression system
Nature of the assay: HDAC1 biochemical assay, AMC-labeled peptide substrate. The conditions noted are these: read-out: HDAC Isoform IC50 (nM) 1. A digest of the protocol: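 Baculovirus-expressed full-length human HDAC1 with His and FLAG tags, 0.3 ng/ul, incubated 1 h at 30° C with compound and 50 μM RHKK(Ac)AMC in Tris pH 8.0 buffer with BSA and 1% DMSO. Developer then releases AMC from deacetylated substrate; fluorescence read at 360/460 nm.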

For assay [2], the target named is T2, Complex of human HDAC3 and human NCOR2 (Homo sapiens, UniProt O15379).
T2 construct: full length with C-terminal His tag, MW=49.7 kDa; His (C); host or cells: baculovirus expression system (co-expressed)
The assay can be described thus: HDAC3 biochemical assay, AMC-labeled peptide substrate. The following applies: read-out: HDAC Isoform IC50 (nM) 3. The method, then:
(§1) Activity against all zinc-dependent HDACs 1 to 11 was assessed by using an acetylated AMC-labeled peptide substrate. The substrate RHKK(Ac)AMC was used for HDAC1, HDAC2, HDAC3, HDAC6 and HDAC10; the substrate used for HDAC8 was RHK(Ac)K(Ac)AMC. Activity against the class IIa HDACs (HDAC4, 5, 7, 9) and HDAC11 was determined using a class IIa-specific substrate, BOC-Lys(trifluoroacetyl)-AMC (“Trifluoroacetyl Lysine”; see Lahm et al, 2007, PNAS, 104, 17335-17340). All assays were based on the AMC-labeled substrate and developer combination.
(§2) The protocol involved a two-step reaction: first, the substrate with the acetylated lysine side chain is incubated with a sample containing HDAC activity, to produce the deacetylated products, which are then digested in the second step by the addition of developer to produce the fluorescent signal proportional to the amount of deacetylated substrates.
Complex of human HDAC3 (GenBank Accession No. NM_003883), full length with C-terminal His tag, MW=49.7 kDa, and human NCOR2 (amino acid 395-489) (GenBank Accession No. NM_006312), N-terminal GST tag, MW=37.6 kDa, co-expressed in baculovirus expression system.
(§3) Assay Buffer: 50 mM Tris-HCl, pH8.0, 137 mM NaCl, 2.7 mM KCl, 1 mM MgC2. Before use, 1 mg/mL BSA and DMSO are added.
HDAC3: 0.1 ng/ul HDAC3 and 50 μM HDAC substrate are in the reaction buffer with 1% DMSO final. Incubate for 1 hour at 30° C.
(§4) Stage 1: Deacetylation of substrate by incubation of HDAC enzymes with compounds
(§5) Stage 2: Development by addition of Developer to digest the deacetylated substrate, and generate the fluorescent colour; Detection: 360/460 Ex/Em

For assay [3], the target named is T3, Human HDAC4 (Homo sapiens, UniProt P56524).
T3 construct: amino acids 627-1085 with N-terminal GST tag; GST (N); host or cells: baculovirus expression system
The assay can be described thus: HDAC4 biochemical assay, class IIa-specific substrate. The following applies: read-out: HDAC Isoform IC50 (nM) 4. A digest of the protocol: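 GST-tagged human HDAC4 (aa 627-1085, baculovirus) at 0.004 ng/ul was incubated 30 min at room temperature with 50 μM class IIa-specific substrate BOC-Lys(trifluoroacetyl)-AMC in Tris-HCl pH 8.0 buffer with BSA, 1% DMSO. Developer then released AMC, read at 360/460 nm.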

The target in assay [4] is T4, Human HDAC8 (Homo sapiens, UniProt Q9BY41).
T4 construct: full length with C-terminal His tag, MW=42.6 kDa; His (C); host or cells: baculovirus expression system
T4 sequence (Q9BY41 1-377): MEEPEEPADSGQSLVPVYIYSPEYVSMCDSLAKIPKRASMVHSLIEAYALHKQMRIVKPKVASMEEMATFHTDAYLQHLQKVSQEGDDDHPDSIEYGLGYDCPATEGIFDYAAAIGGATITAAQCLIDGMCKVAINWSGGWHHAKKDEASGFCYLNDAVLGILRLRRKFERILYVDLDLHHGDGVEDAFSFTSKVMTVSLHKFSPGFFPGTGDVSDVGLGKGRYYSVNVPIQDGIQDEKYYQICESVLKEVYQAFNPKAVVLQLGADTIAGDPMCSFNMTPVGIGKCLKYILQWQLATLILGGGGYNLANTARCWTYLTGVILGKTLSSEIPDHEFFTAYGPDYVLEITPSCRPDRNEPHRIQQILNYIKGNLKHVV
The assay can be described thus: HDAC8 biochemical assay, AMC-labeled peptide substrate. The conditions noted are these: read-out: HDAC Isoform IC50 (nM) 8. The method, then: as §1, §2
Human HDAC8 (GenBankAccession No. NM_018486), full length with C-terminal His tag, MW=42.6 kDa, expressed in a baculovirus expression system.
as §3
HDAC8: 1 ng/ul HDAC8 and 100 µM HDAC8 substrate are in the reaction buffer with 1% DMSO final. Incubate for 2 hours at 30° C.
as §4, §5

For assay [5], the target named is T5, Human HDAC9 (Homo sapiens, UniProt Q9UKV0).
T5 construct: amino acids 604-1066 with C-terminal His tag; His (C); host or cells: baculovirus expression system
The assay can be described thus: HDAC9 biochemical assay, class IIa-specific substrate. The conditions noted are these: read-out: HDAC Isoform IC50 (nM) 9. A digest of the protocol:
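HDAC9 residues 604-1066 (C-terminal His tag, baculovirus-expressed) at 0.06 ng/ul with 50 μM class IIa substrate Boc-Lys(trifluoroacetyl)-AMC in Tris-HCl pH 8.0 buffer with BSA and 1% DMSO. 30 min at room temperature, then developer added; fluorescence read at 360/460 nm Ex/Em.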

Assay [6] deals with T6, Human HDAC11 (Homo sapiens, UniProt Q96DB2).
T6 construct: Human HDAC11 (full length); His (N); host or cells: baculovirus expression system
T6 sequence (Q96DB2 1-347): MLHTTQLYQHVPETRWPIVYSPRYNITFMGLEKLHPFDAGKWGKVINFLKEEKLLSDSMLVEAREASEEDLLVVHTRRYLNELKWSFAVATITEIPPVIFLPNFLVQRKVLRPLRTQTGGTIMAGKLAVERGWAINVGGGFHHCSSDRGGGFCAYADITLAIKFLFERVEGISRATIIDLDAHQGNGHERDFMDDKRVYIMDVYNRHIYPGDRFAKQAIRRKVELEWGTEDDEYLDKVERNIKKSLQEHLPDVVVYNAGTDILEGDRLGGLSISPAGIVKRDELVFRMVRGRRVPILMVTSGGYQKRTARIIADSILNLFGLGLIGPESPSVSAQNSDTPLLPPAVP
Nature of the assay: HDAC11 biochemical assay, class IIa-specific substrate. The conditions noted are these: read-out: HDAC Isoform IC50 (nM) 11. The method, then:
as §1, §2
Human HDAC11 (full length) (GenBank Accession No. NM_024827) with N-terminal His tag, MW=42.9 kDa, expressed in baculovirus expression system.
as §3
HDAC11: 5 ng/ul HDAC11 and 50 μMHDAC substrate are in the reaction buffer with 1% DMSO final. Incubate for 30 minutes at 30° C.
as §4, §5

T5 sequence (Q9UKV0 604-1066 isoform Q9UKV0-5): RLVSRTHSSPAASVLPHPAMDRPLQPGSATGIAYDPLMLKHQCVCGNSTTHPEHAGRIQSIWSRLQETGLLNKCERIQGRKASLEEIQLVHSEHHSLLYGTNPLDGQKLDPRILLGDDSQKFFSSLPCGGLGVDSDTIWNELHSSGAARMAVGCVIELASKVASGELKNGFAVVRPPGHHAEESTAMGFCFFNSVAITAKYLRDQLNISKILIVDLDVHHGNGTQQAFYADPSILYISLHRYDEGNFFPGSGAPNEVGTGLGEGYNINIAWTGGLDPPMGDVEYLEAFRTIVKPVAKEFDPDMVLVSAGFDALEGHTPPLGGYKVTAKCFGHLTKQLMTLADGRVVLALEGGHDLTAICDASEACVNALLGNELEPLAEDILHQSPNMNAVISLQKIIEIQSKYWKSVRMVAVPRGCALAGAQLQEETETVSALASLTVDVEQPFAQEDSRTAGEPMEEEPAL
T1 sequence (Q13547 whole entry): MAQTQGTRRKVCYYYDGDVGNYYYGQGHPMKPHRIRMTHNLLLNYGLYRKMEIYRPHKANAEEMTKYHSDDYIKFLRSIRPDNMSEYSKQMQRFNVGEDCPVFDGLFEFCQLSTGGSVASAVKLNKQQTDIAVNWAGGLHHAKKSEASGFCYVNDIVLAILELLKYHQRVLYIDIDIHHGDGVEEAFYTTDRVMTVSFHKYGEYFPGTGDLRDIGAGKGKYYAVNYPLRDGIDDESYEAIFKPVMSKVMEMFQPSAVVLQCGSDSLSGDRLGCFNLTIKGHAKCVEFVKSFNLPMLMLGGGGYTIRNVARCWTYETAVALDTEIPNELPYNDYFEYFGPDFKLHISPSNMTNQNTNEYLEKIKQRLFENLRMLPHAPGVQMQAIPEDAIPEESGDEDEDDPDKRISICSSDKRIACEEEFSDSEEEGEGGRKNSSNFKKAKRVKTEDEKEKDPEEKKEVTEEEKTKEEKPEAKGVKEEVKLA
T3 sequence (P56524 627-1084 limits assumed): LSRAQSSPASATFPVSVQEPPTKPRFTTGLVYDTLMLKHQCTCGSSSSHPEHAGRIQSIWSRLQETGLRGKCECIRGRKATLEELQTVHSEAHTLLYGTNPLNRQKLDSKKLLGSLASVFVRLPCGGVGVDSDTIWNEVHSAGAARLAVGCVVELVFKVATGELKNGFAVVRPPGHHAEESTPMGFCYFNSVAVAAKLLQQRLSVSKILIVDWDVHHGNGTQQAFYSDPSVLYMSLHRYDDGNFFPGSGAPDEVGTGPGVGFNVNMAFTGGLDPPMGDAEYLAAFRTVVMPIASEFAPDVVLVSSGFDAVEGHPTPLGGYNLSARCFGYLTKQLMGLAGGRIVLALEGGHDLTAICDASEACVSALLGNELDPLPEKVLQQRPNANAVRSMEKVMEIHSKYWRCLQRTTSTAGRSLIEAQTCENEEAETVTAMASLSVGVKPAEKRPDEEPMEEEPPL
T2 sequence (O15379 whole entry): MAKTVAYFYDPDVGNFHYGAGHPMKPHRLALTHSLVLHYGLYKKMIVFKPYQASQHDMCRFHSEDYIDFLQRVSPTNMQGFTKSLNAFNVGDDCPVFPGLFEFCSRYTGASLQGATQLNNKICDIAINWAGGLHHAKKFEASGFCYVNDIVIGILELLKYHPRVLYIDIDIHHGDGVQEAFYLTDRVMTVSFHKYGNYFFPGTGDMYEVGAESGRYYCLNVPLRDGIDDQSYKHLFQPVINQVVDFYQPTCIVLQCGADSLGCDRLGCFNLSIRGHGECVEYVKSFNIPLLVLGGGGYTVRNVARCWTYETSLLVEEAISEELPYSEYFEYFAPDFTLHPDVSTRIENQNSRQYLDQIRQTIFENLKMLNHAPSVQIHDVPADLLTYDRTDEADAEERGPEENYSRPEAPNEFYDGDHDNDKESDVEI
T2 sequence (Q9Y618 395-489 partner limits assumed): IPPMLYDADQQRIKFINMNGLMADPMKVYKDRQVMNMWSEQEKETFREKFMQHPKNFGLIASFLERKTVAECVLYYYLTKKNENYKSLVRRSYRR

As for `FC(F)(F)c1nc(-c2ccc(CN(c3cnccn3)c3cnc(N4CCOCC4)cn3)s2)no1` [Example BM, 5-(Morpholin-4-yl)-N-(pyrazin-2-yl)-N-({5-[5-(trifluoromethyl)-1,2,4-oxadiazol-3-yl]thiophen-2-yl}methyl)pyrazin-2-amine], the IC50 in assay [1] is no more than 10000 nM; in assay [2], no more than 10000 nM; in assay [3] it was no more than 1000 nM; in assay [4], no more than 10000 nM; in assay [5], no more than 10000 nM; in assay [6], greater than 10000 nM.
Regarding `Cc1cncc(N(Cc2ccc(-c3noc(C(F)(F)F)n3)s2)c2cnccn2)n1` [Example BP, 6-Methyl-N-(pyrazin-2-yl)-N-({5-[5-(trifluoromethyl)-1,2,4-oxadiazol-3-yl]thiophen-2-yl}methyl)pyrazin-2-amine], the half-maximal inhibitory concentration (IC50) in assay [1] is greater than 10000 nM; in assay [2], greater than 10000 nM; in assay [3], no more than 1000 nM; in assay [4], no more than 10000 nM; in assay [5], no more than 10000 nM; in assay [6], greater than 10000 nM.
Consider `COc1cncc(N(Cc2ccc(-c3noc(C(F)(F)F)n3)s2)c2cnccn2)n1` [Example BQ, 6-Methoxy-N-(pyrazin-2-yl)-N-({5-[5-(trifluoromethyl)-1,2,4-oxadiazol-3-yl]thiophen-2-yl}methyl)pyrazin-2-amine], for which the IC50 is greater than 10000 nM in assay [1]; greater than 10000 nM in assay [2]; no more than 10000 nM in assay [3]; no more than 10000 nM in assay [4]; no more than 10000 nM in assay [5]; greater than 10000 nM in assay [6].
With `FC(F)(F)c1cncc(N(Cc2ccc(-c3noc(C(F)(F)F)n3)s2)c2cnccn2)n1` [Example BR, N-(Pyrazin-2-yl)-6-(trifluoromethyl)-N-({5-[5-(trifluoromethyl)-1,2,4-oxadiazol-3-yl]thiophen-2-yl}methyl)pyrazin-2-amine], the IC50 in assay [1] is greater than 10000 nM; in assay [2], greater than 10000 nM; in assay [3] it was no more than 10000 nM; in assay [4], no more than 10000 nM; in assay [5], no more than 10000 nM; in assay [6], greater than 10000 nM.
Take `NC(=O)c1ccc(N(Cc2ccc(-c3noc(C(F)(F)F)n3)s2)c2cnccn2)nn1` [Example DQ, 6-[(Pyrazin-2-yl)({5-[5-(trifluoromethyl)-1,2,4-oxadiazol-3-yl]thiophen-2-yl}methyl)amino]pyridazine-3-carboxamide]: the concentration for half-maximal inhibition (IC50) in assay [1] was no more than 10000 nM; in assay [2], no more than 10000 nM; in assay [3], no more than 500 nM; in assay [4] it was no more than 10000 nM; in assay [5], no more than 1000 nM; in assay [6], greater than 10000 nM.
On to `COC1CN(C(=O)c2ccc(N(Cc3ccc(-c4noc(C(F)(F)F)n4)s3)c3cnccn3)nn2)C1` [Example DR, 6-(3-Methoxyazetidine-1-carbonyl)-N-(pyrazin-2-yl)-N-({5-[5-(trifluoromethyl)-1,2,4-oxadiazol-3-yl]thiophen-2-yl}methyl)pyridazin-3-amine], for which the concentration for half-maximal inhibition (IC50) is no more than 10000 nM in assay [1]; no more than 10000 nM in assay [2]; no more than 500 nM in assay [3]; no more than 10000 nM in assay [4]; no more than 500 nM in assay [5]; greater than 10000 nM in assay [6].
As to `O=C(c1ccc(N(Cc2ccc(-c3noc(C(F)(F)F)n3)s2)c2cnccn2)nn1)N1CCOCC1` [Example DS, 6-(Morpholine-4-carbonyl)-N-(pyrazin-2-yl)-N-({5-[5-(trifluoromethyl)-1,2,4-oxadiazol-3-yl]thiophen-2-yl}methyl)pyridazin-3-amine], the concentration for half-maximal inhibition (IC50) was greater than 10000 nM in assay [1]; no more than 10000 nM in assay [2]; no more than 500 nM in assay [3]; no more than 10000 nM in assay [4]; no more than 1000 nM in assay [5]; greater than 10000 nM in assay [6].
With `O=C(O)c1cnnc(N(Cc2ccc(-c3noc(C(F)(F)F)n3)s2)c2cnccn2)c1` [Example DW, 6-[(Pyrazin-2-yl)({5-[5-(trifluoromethyl)-1,2,4-oxadiazol-3-yl]thiophen-2-yl}methyl)amino]pyridazine-4-carboxylic acid], the half-maximal inhibitory concentration (IC50) in assay [1] is greater than 10000 nM; in assay [2], greater than 10000 nM; in assay [3], no more than 10000 nM; in assay [4], no more than 10000 nM; in assay [5] it was no more than 10000 nM; in assay [6] it was greater than 10000 nM.
Regarding `NC(=O)c1cnnc(N(Cc2ccc(-c3noc(C(F)(F)F)n3)s2)c2cnccn2)c1` [Example DX, 6-[(Pyrazin-2-yl)({5-[5-(trifluoromethyl)-1,2,4-oxadiazol-3-yl]thiophen-2-yl}methyl)amino]pyridazine-4-carboxamide], the IC50 was greater than 10000 nM in assay [1]; no more than 10000 nM in assay [2]; no more than 1000 nM in assay [3]; no more than 10000 nM in assay [4]; no more than 10000 nM in assay [5]; greater than 10000 nM in assay [6].
On to `CNC(=O)c1cnnc(N(Cc2ccc(-c3noc(C(F)(F)F)n3)s2)c2cnccn2)c1` [Example DY, N-Methyl-6-[(pyrazin-2-yl)({5-[5-(trifluoromethyl)-1,2,4-oxadiazol-3-yl]thiophen-2-yl}methyl)amino]pyridazine-4-carboxamide], for which the IC50 is greater than 10000 nM in assay [1]; greater than 10000 nM in assay [2]; no more than 1000 nM in assay [3]; no more than 10000 nM in assay [4]; no more than 10000 nM in assay [5]; greater than 10000 nM in assay [6].
